These results are taken from US4112105A, “Anti-inflammatory 3-(substituted-amino)-2,1-benzisothiazoles” (Sterling Drug Inc., priority 1977, dated 1978).

The term inhibition in vivo denotes how much of the control response was suppressed. Usually LD50 stands for the dose expected to kill half of the subjects tested.

A short description of series [1]: inhibition of carrageenin-induced foot edema test. The class given is in vivo. Here is the method:
(§1) Anti-inflammatory activity was determined using (1) the inhibition of carrageenin-induced foot edema test essentially described by Van Arman et al., J. Pharmocol. Exptl. Therap. 150, 328 (1965) as a modification of the procedure of Winter et al., Proc. Soc. Exp. Biol. and Med. 111, 544 (1962) and (2) a modification of the inhibition of adjuvant-induced arthritis test described by Pearson, J. Chronic Diseases 16, 863 (1963) and Glenn et al., Am. J. Vet. Res. 26, 1180 (1965).
Representative examples of the compounds of this invention have been tested in the carrageenin edema and adjuvant arthritis tests as described hereinabove and found to have anti-inflammatory activity. Test data, given as percent inhibition at a dose expressed in millimoles (mMole/kg) are presented hereinbelow. All test compounds were administered orally.
The data for a number of examples are presented in several separate groups each representing the test results wherein anti-inflammatory activity was measured at one or more dose levels against a single set of controls.
(In general: Carrageenan injected into the paw causes an acute inflammation.)

Series [2] in a line: inhibition of adjuvant-induced arthritis test. The conditions noted are these: for inhibition in vivo at 120 µmol/kg: 0.12 mMole/kg. The class given is in vivo. Here is the method:
Anti-inflammatory activity was determined using (1) the inhibition of carrageenin-induced foot edema test essentially described by Van Arman et al., J. Pharmocol. Exptl. Therap. […] J. Vet.
All test compounds were administered orally.

Series [3] is described as follows: acute oral toxicity, standard toxicological test procedures. The conditions noted are these: in vivo; for LD50 at 168 h: acute oral, read-out: 7-day LD50. Here is the method:
Acute oral toxicity was determined for Examples 1E and (g) employing standard toxicological test procedures.

Series [4] in a line: anti-inflammatory activity (test not given). As to conditions: in vivo. Here is the method: as §1

As to `CCN(CC)CCCC(C)Nc1snc2cc(Cl)ccc12` (stereo not drawn) [Example 1D, 6-chloro-3-[4-(diethylamino)-1-methylbutylamino]-2,1-benzisothiazole], the “anti-inflammatory activity in carrageenin edema assay (in words)” value in series [1] (in vivo) is “high degree of anti-inflammatory activity”. In addition, the “Carrageenin edema % inhibition” value in series [1] (oral, 0.03 mMole/kg) was found to be 19%. This compound yielded an inhibition in vivo at 90 µmol/kg in series [1] (po, 0.09 mMole/kg) of 14%. For the same compound, the inhibition in vivo at 270 µmol/kg in series [1] (po, 0.27 mMole/kg) came to 29%. Further, the “anti-inflammatory activity in adjuvant arthritis assay (in words)” value in series [2] (in vivo) is given as “high degree of anti-inflammatory activity”. Also, the inhibition in vivo at 120 µmol/kg in series [2] (po) amounted to 65%. Further, the “toxicity (in words)” value in series [3] is on record as “low toxicity”.

For `CCN(CC)CCCC(C)Nc1snc2ccccc12` (stereo not drawn) [3-[4-(diethylamino)-1-methylbutylamino]-2,1-benzisothiazole], the “anti-inflammatory activity (in words)” value in series [4] is “useful anti-inflammatory activity”.

Consider `CCN(CC)CCCC(C)Nc1snc2cc(Cl)ccc12` (stereo not drawn) [Example 1E, 6-chloro-3-[4-(diethylamino)-1-methylbutylamino]-2,1-benzisothiazole diphosphate], for which the “Carrageenin edema % inhibition” value in series [1] (oral, 0.03 mMole/kg) was 4%; in series [1] (oral, 0.09 mMole/kg), 25%; in series [1] (oral, 0.27 mMole/kg), 39%. Also, the “side effects (footnote c)” value in series [1] (oral, 0.64 mMole/kg) was “hypothermia”. The same compound registered an inhibition in vivo at 640 µmol/kg in series [1] (po, 0.64 mMole/kg) of 60%. Moreover, in series [2] (oral, 0.24 mMole/kg), the “toxicity in adjuvant arthritis test” value is recorded as “toxic”. Further, the LD50 at 168 h in series [3] came to 1430 mg/kg.

`CCN(CC)CCCC(C)Nc1snc2ccccc12` (stereo not drawn) [(g), 3-[4-(diethylamino)-1-methylbutylamino]-2,1-benzisothiazole diphosphate, reference compound] showed an inhibition in vivo at 20 µmol/kg in series [1] (po, 0.02 mMole/kg) of 0%. In addition, the inhibition in vivo at 30 µmol/kg in series [2] (po, 0.03 mMole/kg) is 0%. Moreover, in series [2] (po, 0.06 mMole/kg), the inhibition in vivo at 60 µmol/kg was 1%. The inhibition in vivo at 120 µmol/kg in series [2] (po) turned out to be 4%. Moreover, in series [2] (po, 0.24 mMole/kg), the inhibition in vivo at 240 µmol/kg came out at 0%. Further, in series [3], the LD50 at 168 h amounted to 1730 mg/kg.
